Values after ≈ are worked out from the molar mass of the structure shown.
How the values were obtained:
Type in all cases: functional
[1] = system: Pseudomonas aeruginosa; assay: Antibacterial activity against Pseudomonas aeruginosa ATCC 27853 assessed as inhibition of bacterial growth incubated for 18 hrs by two fold broth microdilution assay
[2] = system: Staphylococcus aureus; assay: Antibacterial activity against methicilin-resistant Staphylococcus aureus N315 assessed as inhibition of bacterial growth incubated for 18 hrs by two fold broth microdilution assay
[3] = system: Enterococcus faecalis; assay: Antibacterial activity against Enterococcus faecalis assessed as inhibition of bacterial growth incubated for 18 hrs by two fold broth microdilution assay
[4] = system: Escherichia coli; assay: Antibacterial activity against Escherichia coli assessed as inhibition of bacterial growth incubated for 18 hrs by two fold broth microdilution assay
[5] = system: Staphylococcus aureus; assay: Antibacterial activity against Staphylococcus aureus ATCC 29213 assessed as inhibition of bacterial growth incubated for 18 hrs by two fold broth microdilution assay
[6] = system: Acinetobacter baumannii; assay: Antibacterial activity against Acinetobacter baumannii assessed as inhibition of bacterial growth incubated for 18 hrs by two fold broth microdilution assay
[7] = system: Pseudomonas aeruginosa; assay: Antibacterial activity against Pseudomonas aeruginosa assessed as inhibition of bacterial growth incubated for 18 hrs by two fold broth microdilution assay
[8] = system: Staphylococcus aureus; assay: Antibacterial activity against Staphylococcus aureus assessed as inhibition of bacterial growth incubated for 18 hrs by two fold broth microdilution assay
[9] = system: Klebsiella pneumoniae; assay: Antibacterial activity against Klebsiella pneumoniae assessed as inhibition of bacterial growth incubated for 18 hrs by two fold broth microdilution assay
[10] = system: Escherichia coli; assay: Antibacterial activity against Escherichia coli ATCC 25922 assessed as inhibition of bacterial growth incubated for 18 hrs by two fold broth microdilution assay
[11] = system: Staphylococcus aureus; assay: Antibacterial activity against Staphylococcus aureus ATCC 25923 assessed as inhibition of bacterial growth incubated for 18 hrs by two fold broth microdilution assay

Compound | MIC [1] [µg/mL] | MIC [2] [µg/mL] | MIC [3] [µg/mL] | MIC [4] [µg/mL] | MIC [5] [µg/mL] | MIC [6] [µg/mL] | MIC [7] [µg/mL] | MIC [8] [µg/mL] | MIC [9] [µg/mL] | MIC [10] [µg/mL] | MIC [11] [µg/mL]
CCCCCn1cc(/C=C(\C#N)S(=O)(=O)c2ccc(NC(C)=O)cc2)c2ccccc21 | 64 (≈ 147 µM) | 256 (≈ 588 µM) | 256 (≈ 588 µM) | 64 (≈ 147 µM) | 16 (≈ 36.7 µM) | 64 (≈ 147 µM) | 64 (≈ 147 µM) | 128 (≈ 294 µM) | 8 (≈ 18.4 µM) | 16 (≈ 36.7 µM) | 8 (≈ 18.4 µM)
N#C/C(=C\c1cn(CC2CC2)c2ccccc12)S(=O)(=O)c1ccc(N)cc1 | 16 (≈ 42.4 µM) | 128 (≈ 339 µM) | 128 (≈ 339 µM) | 256 (≈ 678 µM) | 32 (≈ 84.8 µM) | 64 (≈ 170 µM) | 64 (≈ 170 µM) | 32 (≈ 84.8 µM) | 16 (≈ 42.4 µM) | 16 (≈ 42.4 µM) | 64 (≈ 170 µM)
CC(=O)Nc1ccc(S(=O)(=O)/C(C#N)=C/c2cn(CC3CC3)c3ccccc23)cc1 | 64 (≈ 153 µM) | 32 (≈ 76.3 µM) | 64 (≈ 153 µM) | 16 (≈ 38.1 µM) | 64 (≈ 153 µM) | 16 (≈ 38.1 µM) | 32 (≈ 76.3 µM) | 256 (≈ 610 µM) | 64 (≈ 153 µM) | 32 (≈ 76.3 µM) | 64 (≈ 153 µM)
CC(=O)Nc1ccc(S(=O)(=O)/C(C#N)=C/c2cn(CC(=O)N3CCCC3)c3ccccc23)cc1 | 128 (≈ 269 µM) | 256 (≈ 537 µM) | 128 (≈ 269 µM) | 64 (≈ 134 µM) | 16 (≈ 33.6 µM) | 64 (≈ 134 µM) | 64 (≈ 134 µM) | 128 (≈ 269 µM) | 64 (≈ 134 µM) | 128 (≈ 269 µM) | 128 (≈ 269 µM)
CCn1cc(/C=C(\C#N)S(=O)(=O)c2ccc(N)cc2)c2ccccc21 | 8 (≈ 22.8 µM) | 16 (≈ 45.5 µM) | 8 (≈ 22.8 µM) | 8 (≈ 22.8 µM) | 1 (≈ 2.85 µM) | 1 (≈ 2.85 µM) | 1 (≈ 2.85 µM) | 1 (≈ 2.85 µM) | 8 (≈ 22.8 µM) | 8 (≈ 22.8 µM) | 64 (≈ 182 µM)
CCCCCCn1cc(/C=C(\C#N)S(=O)(=O)c2ccc(NC(C)=O)cc2)c2ccccc21 | 8 (≈ 17.8 µM) | 32 (≈ 71.2 µM) | 4 (≈ 8.9 µM) | 8 (≈ 17.8 µM) | 1 (≈ 2.22 µM) | 8 (≈ 17.8 µM) | 4 (≈ 8.9 µM) | 256 (≈ 569 µM) | 256 (≈ 569 µM) | 8 (≈ 17.8 µM) | 4 (≈ 8.9 µM)
CC(=O)Nc1ccc(S(=O)(=O)/C(C#N)=C/c2cn(CC3CCCC3)c3ccccc23)cc1 | 16 (≈ 35.7 µM) | 128 (≈ 286 µM) | 32 (≈ 71.5 µM) | 256 (≈ 572 µM) | 16 (≈ 35.7 µM) | 32 (≈ 71.5 µM) | 64 (≈ 143 µM) | 8 (≈ 17.9 µM) | 4 (≈ 8.94 µM) | 64 (≈ 143 µM) | 128 (≈ 286 µM)
N#C/C(=C\c1cn(Cc2ccc(F)cc2F)c2ccccc12)S(=O)(=O)c1ccc(N)cc1 | 64 (≈ 142 µM) | 256 (≈ 570 µM) | 256 (≈ 570 µM) | 256 (≈ 570 µM) | 8 (≈ 17.8 µM) | 16 (≈ 35.6 µM) | 64 (≈ 142 µM) | 32 (≈ 71.2 µM) | 4 (≈ 8.9 µM) | 64 (≈ 142 µM) | 64 (≈ 142 µM)
N#C/C(=C\c1cn(CCN2CCOCC2)c2ccccc12)S(=O)(=O)c1ccc(N)cc1 | 64 (≈ 147 µM) | 16 (≈ 36.7 µM) | 256 (≈ 586 µM) | 16 (≈ 36.7 µM) | 64 (≈ 147 µM) | 64 (≈ 147 µM) | 64 (≈ 147 µM) | 32 (≈ 73.3 µM) | 128 (≈ 293 µM) | 0.5 (≈ 1.15 µM) | 32 (≈ 73.3 µM)
N#C/C(=C\c1cn(Cc2ccc(Cl)cc2Cl)c2ccccc12)S(=O)(=O)c1ccc(N)cc1 | 32 (≈ 66.3 µM) | 256 (≈ 531 µM) | 128 (≈ 265 µM) | 256 (≈ 531 µM) | 64 (≈ 133 µM) | 16 (≈ 33.2 µM) | 64 (≈ 133 µM) | 256 (≈ 531 µM) | 4 (≈ 8.29 µM) | 64 (≈ 133 µM) | 32 (≈ 66.3 µM)
CN(C)CCn1cc(/C=C(\C#N)S(=O)(=O)c2ccc(N)cc2)c2ccccc21 | 32 (≈ 81.1 µM) | 128 (≈ 324 µM) | 64 (≈ 162 µM) | 128 (≈ 324 µM) | 8 (≈ 20.3 µM) | 16 (≈ 40.6 µM) | 64 (≈ 162 µM) | 2 (≈ 5.07 µM) | 128 (≈ 324 µM) | 256 (≈ 649 µM) | 2 (≈ 5.07 µM)
CC(=O)Nc1ccc(S(=O)(=O)/C(C#N)=C/c2cn(Cc3ccc(Cl)cc3Cl)c3ccccc23)cc1 | 32 (≈ 61 µM) | 64 (≈ 122 µM) | 256 (≈ 488 µM) | 256 (≈ 488 µM) | 8 (≈ 15.3 µM) | 8 (≈ 15.3 µM) | 64 (≈ 122 µM) | 16 (≈ 30.5 µM) | 4 (≈ 7.63 µM) | 64 (≈ 122 µM) | 64 (≈ 122 µM)
CC(=O)Nc1ccc(S(=O)(=O)/C(C#N)=C/c2c[nH]c3c(C)cccc23)cc1 | 64 (≈ 169 µM) | 64 (≈ 169 µM) | 32 (≈ 84.3 µM) | 4 (≈ 10.5 µM) | 32 (≈ 84.3 µM) | 16 (≈ 42.2 µM) | 64 (≈ 169 µM) | 32 (≈ 84.3 µM) | 4 (≈ 10.5 µM) | 4 (≈ 10.5 µM) | 128 (≈ 337 µM)

Source: ChEMBL document CHEMBL5625248, “Identification of unique indolylcyanoethylenyl sulfonylanilines as novel structural scaffolds of potential antibacterial agents” (Eur J Med Chem, 2023)
